{
  "source": "patent US20240237643A1",
  "about": "“COMPOSITIONS WITH VIRUCIDAL AND/OR ANTIVIRAL ACTIVITY” (priority 2020, published 2024)",
  "type_in_all_cases": "cell-based",
  "key": {"[1]": {"test_system": "Herpes simplex virus (HV)", "test": "Virucidal activity, quantitative suspension test DIN EN 14476"}, "Influenza virus (H1N1)": {"test_system": "Influenza virus (H1N1)", "test": "Virucidal activity, quantitative suspension test DIN EN 14476"}, "[2]": {"test_system": "all virus types (MHV-3, H1N1, HV, HRSV)", "test": "Virucidal activity DIN EN 14476, summary over all virus types", "conditions": "concentration of 0.1 wt.-percent", "description": "(§1) Testing was conducted over a period of 1 to 10 minutes. Activity against the following viruses was determined: • Coronavirus (MHV-3) • Influenza virus (H1N1) • Herpes simplex virus (HV) • Human respiratory syncytial virus (HRSV)\n(§2) In this context (+) means that more than 99.99% of all viruses were inactivated; this is equivalent to a reduction factor of 10,000."}, "Coronavirus (MHV-3)": {"test_system": "Coronavirus (MHV-3)", "test": "Virucidal activity, quantitative suspension test DIN EN 14476", "description": "as §1, §2"}, "[3]": {"test_system": "Human respiratory syncytial virus (HRSV)", "test": "Virucidal activity, quantitative suspension test DIN EN 14476"}, "[4]": {"conditions": "0.1 wt.-percent in water, 1 min"}, "[5]": {"conditions": "0.1 wt.-percent in water, 10 min"}, "[6]": {"conditions": "10 wt.-percent in water, 10 min"}},
  "data": [
    {"smiles": "CC(C)=CCCC(C)=CCCC(C)=CCO", "note": "[3,7,11-trimethyl-2,6,10-dodecantrien-1-ol]", "values": [
      {"measurement": "Virucidal activity HV", "setting": "[1]; [4]", "value": "(+) ((+) means that more than 99.99% of all viruses were inactivated; this is equivalent to a reduction factor of 10,000)"},
      {"measurement": "Virucidal activity HV", "setting": "[1]; [5]", "value": "(+) ((+) means that more than 99.99% of all viruses were inactivated; this is equivalent to a reduction factor of 10,000)"},
      {"measurement": "Virucidal activity HV", "setting": "[1]; 1 wt.-percent in water, 1 min", "value": "(+) ((+) means that more than 99.99% of all viruses were inactivated; this is equivalent to a reduction factor of 10,000)"},
      {"measurement": "Virucidal activity HV", "setting": "[1]; 1 wt.-percent in water, 10 min", "value": "(+) ((+) means that more than 99.99% of all viruses were inactivated; this is equivalent to a reduction factor of 10,000)"},
      {"measurement": "Virucidal activity HV", "setting": "[1]; 10 wt.-percent in water, 1 min", "value": "(+) ((+) means that more than 99.99% of all viruses were inactivated; this is equivalent to a reduction factor of 10,000)"},
      {"measurement": "Virucidal activity HV", "setting": "[1]; [6]", "value": "(+) ((+) means that more than 99.99% of all viruses were inactivated; this is equivalent to a reduction factor of 10,000)"},
      {"measurement": "Virucidal activity H1N1", "setting": "Influenza virus (H1N1); [4]", "value": "(+) ((+) means that more than 99.99% of all viruses were inactivated; this is equivalent to a reduction factor of 10,000)"},
      {"measurement": "Virucidal activity H1N1", "setting": "Influenza virus (H1N1); [5]", "value": "(+) ((+) means that more than 99.99% of all viruses were inactivated; this is equivalent to a reduction factor of 10,000)"},
      {"measurement": "Virucidal activity H1N1", "setting": "Influenza virus (H1N1); 1 wt.-percent in water, 1 min", "value": "(+) ((+) means that more than 99.99% of all viruses were inactivated; this is equivalent to a reduction factor of 10,000)"},
      {"measurement": "Virucidal activity H1N1", "setting": "Influenza virus (H1N1); 1 wt.-percent in water, 10 min", "value": "(+) ((+) means that more than 99.99% of all viruses were inactivated; this is equivalent to a reduction factor of 10,000)"},
      {"measurement": "Virucidal activity H1N1", "setting": "Influenza virus (H1N1); 10 wt.-percent in water, 1 min", "value": "(+) ((+) means that more than 99.99% of all viruses were inactivated; this is equivalent to a reduction factor of 10,000)"},
      {"measurement": "Virucidal activity H1N1", "setting": "Influenza virus (H1N1); [6]", "value": "(+) ((+) means that more than 99.99% of all viruses were inactivated; this is equivalent to a reduction factor of 10,000)"},
      {"measurement": "reduction factor", "setting": "[2]", "value": "10,000"},
      {"measurement": "Virucidal activity MHV-3", "setting": "Coronavirus (MHV-3); [4]", "value": "(+) ((+) means that more than 99.99% of all viruses were inactivated; this is equivalent to a reduction factor of 10,000)"},
      {"measurement": "Virucidal activity MHV-3", "setting": "Coronavirus (MHV-3); [5]", "value": "(+) ((+) means that more than 99.99% of all viruses were inactivated; this is equivalent to a reduction factor of 10,000)"},
      {"measurement": "Virucidal activity MHV-3", "setting": "Coronavirus (MHV-3); 1 wt.-percent in water, 1 min", "value": "(+) ((+) means that more than 99.99% of all viruses were inactivated; this is equivalent to a reduction factor of 10,000)"},
      {"measurement": "Virucidal activity MHV-3", "setting": "Coronavirus (MHV-3); 1 wt.-percent in water, 10 min", "value": "(+) ((+) means that more than 99.99% of all viruses were inactivated; this is equivalent to a reduction factor of 10,000)"},
      {"measurement": "Virucidal activity MHV-3", "setting": "Coronavirus (MHV-3); 10 wt.-percent in water, 1 min", "value": "(+) ((+) means that more than 99.99% of all viruses were inactivated; this is equivalent to a reduction factor of 10,000)"},
      {"measurement": "Virucidal activity MHV-3", "setting": "Coronavirus (MHV-3); [6]", "value": "(+) ((+) means that more than 99.99% of all viruses were inactivated; this is equivalent to a reduction factor of 10,000)"},
      {"measurement": "Virucidal activity HRSV", "setting": "[3]; [4]", "value": "(+) ((+) means that more than 99.99% of all viruses were inactivated; this is equivalent to a reduction factor of 10,000)"},
      {"measurement": "Virucidal activity HRSV", "setting": "[3]; [5]", "value": "(+) ((+) means that more than 99.99% of all viruses were inactivated; this is equivalent to a reduction factor of 10,000)"},
      {"measurement": "Virucidal activity HRSV", "setting": "[3]; 1 wt.-percent in water, 1 min", "value": "(+) ((+) means that more than 99.99% of all viruses were inactivated; this is equivalent to a reduction factor of 10,000)"},
      {"measurement": "Virucidal activity HRSV", "setting": "[3]; 1 wt.-percent in water, 10 min", "value": "(+) ((+) means that more than 99.99% of all viruses were inactivated; this is equivalent to a reduction factor of 10,000)"},
      {"measurement": "Virucidal activity HRSV", "setting": "[3]; 10 wt.-percent in water, 1 min", "value": "(+) ((+) means that more than 99.99% of all viruses were inactivated; this is equivalent to a reduction factor of 10,000)"},
      {"measurement": "Virucidal activity HRSV", "setting": "[3]; [6]", "value": "(+) ((+) means that more than 99.99% of all viruses were inactivated; this is equivalent to a reduction factor of 10,000)"}
    ]}
  ]
}
